BindingDB's records for doi:10.7270/Q2CF9NKD (Burnham Center For Chemical Genomics, 2010)

What follows are molecules tested against Intestinal-type alkaline phosphatase (Homo sapiens, UniProt P09923) (assay: activation of human intestinal alkaline phosphatase – biochemical, luminescent, uHTS hits, set 2, dose response (AID 488817)).
Chain of Intestinal-type alkaline phosphatase (P09923 whole entry): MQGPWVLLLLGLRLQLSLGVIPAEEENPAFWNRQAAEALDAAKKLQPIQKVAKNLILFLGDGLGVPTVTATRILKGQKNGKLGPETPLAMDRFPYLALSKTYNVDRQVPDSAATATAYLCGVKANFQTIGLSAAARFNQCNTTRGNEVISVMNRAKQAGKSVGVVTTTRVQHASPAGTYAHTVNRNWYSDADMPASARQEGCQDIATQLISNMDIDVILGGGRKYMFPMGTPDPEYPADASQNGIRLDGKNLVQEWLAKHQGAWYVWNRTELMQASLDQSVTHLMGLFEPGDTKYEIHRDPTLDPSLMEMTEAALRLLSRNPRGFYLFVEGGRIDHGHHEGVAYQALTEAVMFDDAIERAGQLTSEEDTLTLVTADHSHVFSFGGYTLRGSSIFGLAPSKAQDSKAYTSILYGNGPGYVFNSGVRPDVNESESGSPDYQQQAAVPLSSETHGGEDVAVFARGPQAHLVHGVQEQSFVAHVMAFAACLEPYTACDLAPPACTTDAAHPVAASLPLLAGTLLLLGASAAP

Row | Compound | EC50 [µM]
1 | Cc1c(C(=O)NN=Cc2ccc(O)cc2O)[nH][nH]c1=O | 11.3
2 | Cc1cc(Br)ccc1SCC(=O)OCC(=O)C(C#N)c1nc2ccccc2[nH]1 (stereo not given) [2-[(4-bromo-2-methylphenyl)thio]acetic acid [3-cyano-3-(1,3-dihydrobenzimidazol-2-ylidene)-2-oxopropyl] ester] | 27.5
3 | C=c1[nH]n(-c2nc3ccccc3[nH]2)c(=O)c1=CN(C)C [(4E)-2-(1H-benzimidazol-2-yl)-4-(dimethylaminomethylidene)-5-methyl-pyrazol-3-one] | 23.2
4 | CCc1ccc(CN=Nc2ncnc3nc[nH]c23)cc1 [MLS000419199] | 12.5
5 | Cn1c(C(C#N)C(=O)c2ccc(Br)s2)nc2ccccc21 (stereo not given) [MLS001167394] | 60
6 | COc1cccc(C=NNC(=O)c2[nH][nH]c(=O)c2C)c1O [N'-[(E)-(5-methoxy-6-oxidanylidene-cyclohexa-2,4-dien-1-ylidene)methyl]-4-methyl-5-oxidanylidene-1,4-dihydropyrazole-3-carbohydrazide] | 9.07
7 | O=c1c2ccccc2nc(N=NCc2c(O)ccc3ccccc23)n1O [SMR000145705] | 31
8 | O=C(Nn1c(O)csc1=S)C(=O)Nn1c(O)csc1=S [SMR000349781] | 12.4
9 | O=Nc1[nH]c(=O)c(CC(=O)c2ccccc2)nc1NO [SMR000539633] | 8.77
10 | CCOC(=O)c1c(C)[nH]c(C(=O)N/N=C/C2C=C([N+](=O)[O-])C=CC2=O)c1C (stereo not given) [ethyl 2,4-dimethyl-5-[[[(E)-(3-nitro-6-oxocyclohexa-2,4-dien-1-ylidene)methyl]amino]carbamoyl]-1H-pyrrole-3-carboxylate] | 11.4
